From ChEMBL document CHEMBL3526014, “Correlation between bilirubin glucuronidation and estradiol-3-gluronidation in the presence of model UDP-glucuronosyltransferase 1A1 substrates/inhibitors” (Drug Metab Dispos, 2011)

T1: UDP-glucuronosyltransferase 1A1 (Homo sapiens, UniProt P22309)
T1 sequence (P22309 whole entry): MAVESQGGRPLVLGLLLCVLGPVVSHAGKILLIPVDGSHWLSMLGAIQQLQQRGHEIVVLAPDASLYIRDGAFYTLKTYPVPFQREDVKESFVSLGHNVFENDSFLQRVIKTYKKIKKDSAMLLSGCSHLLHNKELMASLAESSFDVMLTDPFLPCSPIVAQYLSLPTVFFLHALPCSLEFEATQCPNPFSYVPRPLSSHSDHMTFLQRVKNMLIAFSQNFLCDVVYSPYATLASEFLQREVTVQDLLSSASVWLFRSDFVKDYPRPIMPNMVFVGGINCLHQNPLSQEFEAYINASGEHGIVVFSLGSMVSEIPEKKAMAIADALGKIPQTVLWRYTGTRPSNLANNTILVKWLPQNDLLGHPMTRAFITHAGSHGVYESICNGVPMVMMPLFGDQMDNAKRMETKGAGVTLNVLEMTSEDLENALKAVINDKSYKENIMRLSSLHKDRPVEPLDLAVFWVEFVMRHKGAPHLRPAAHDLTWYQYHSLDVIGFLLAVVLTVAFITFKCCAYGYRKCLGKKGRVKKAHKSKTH

T2: UGT1A1 (Homo sapiens, UniProt P22309)
T2 sequence (P22309 whole entry): T1 sequence (P22309 whole entry)

B1: UDP-glucuronosyltransferase 1A1 (Homo sapiens) (protein)
chain: T1 sequence (P22309 whole entry)

How the values were obtained:
[1] = molecular target: T1, UDP-glucuronosyltransferase 1A1; assay: Inhibition of human recombinant UGT1A1 expressed in HEK293 cells assessed as reduction in estradiol 3-glucuronidation by LC-MS/MS method; assay type: ADME, cell-based
[2] = molecular target: T1, UDP-glucuronosyltransferase 1A1; assay: Inhibition of human recombinant UGT1A1 expressed in HEK293 cells assessed as reduction in bilirubin glucuronidation by LC-MS/MS method; assay type: ADME, cell-based
[3] = molecular target: T1, UDP-glucuronosyltransferase 1A1; assay: Inhibition of human recombinant UGT1A1 expressed in HEK293 cells assessed as reduction in estradiol 3-glucuronidation using 4 to 75 uM estradiol by LC-MS/MS method; assay type: ADME, cell-based
[4] = molecular target: T1, UDP-glucuronosyltransferase 1A1; assay: Activation of human recombinant UGT1A1 expressed in HEK293 cells assessed as increase in estradiol 3-glucuronidation at 6.25 uM by LC-MS/MS method; assay type: ADME, cell-based; settings: hek293, 6.25 µM
[5] = molecular target: T1, UDP-glucuronosyltransferase 1A1; assay: Activation of human recombinant UGT1A1 expressed in HEK293 cells assessed as increase in estradiol 3-glucuronidation by LC-MS/MS method relative to untreated control; assay type: ADME, cell-based
[6] = molecular target: T1, UDP-glucuronosyltransferase 1A1; assay: Activation of human recombinant UGT1A1 expressed in HEK293 cells assessed as increase in estradiol 3-glucuronidation at 6.25 uM using 4 uM estradiol by LC-MS/MS method relative to untreated control; assay type: ADME, cell-based; settings: hek293, 6.25 µM
[7] = molecular target: T1, UDP-glucuronosyltransferase 1A1; assay: Inhibition of human recombinant UGT1A1 expressed in HEK293 cells assessed as reduction in estradiol 3-glucuronidation at 50 uM using >15 uM estradiol by LC-MS/MS method; assay type: ADME, cell-based; settings: hek293, 50 µM
[8] = molecular target: T1, UDP-glucuronosyltransferase 1A1; assay: Activation of human recombinant UGT1A1 expressed in HEK293 cells assessed as increase in estradiol 3-glucuronidation using 15 uM estradiol by LC-MS/MS method relative to untreated control; assay type: ADME, cell-based
UGT1A1 = molecular target: T2, UGT1A1; assay: Activation of human recombinant UGT1A1 expressed in HEK293 cells assessed as increase in estradiol 3-glucuronidation using 7.5 uM estradiol by LC-MS/MS method relative to untreated control; assay type: ADME, cell-based; settings: probe estradiol (3-glucuronidation)
[9] = substrate: CCc1c2c(nc3ccc(O)cc13)-c1cc3c(c(=O)n1C2)COC(=O)[C@]3(O)CC; assay: Drug metabolism assessed as UGT1A1 (unknown origin)-mediated compound glucuronidation; assay type: ADME, Homo sapiens

| Molecule | IC50 ([1]; read-out: IC50) [µM] | IC50 [2] [µM] | other results |
| --- | --- | --- | --- |
| O=C1NC(=O)C(c2ccccc2)(c2ccc(O)cc2)N1 (configuration not stated) | 110 | 120 | – |
| Cc1nnc(C(=O)NC(C)(C)c2nc(C(=O)NCc3ccc(F)cc3)c(O)c(=O)n2C)o1 | 190 | 170 | – |
| O=C1c2ccc(O)cc2C(=O)c2ccc(O)cc21 | 4 | 3.6 | – |
| Oc1cccc2ccccc12 [1-NAPHTHOL] | 280 | 240 | – |
| CCc1c2c(nc3ccc(O)cc13)-c1cc3c(c(=O)n1C2)COC(=O)[C@]3(O)CC [7-ETHYL-10-HYDROXYCAMPTOTHECIN] | – | 360 | inhibition (INH) [3]: 40%; IC50 ([1]; hek293): Not Active |
| O=c1cc(-c2ccccc2)oc2cc(O)c(O)c(O)c12 [BAICALEIN] | 4.4 | 7 | – |
| O=c1c(-c2ccc(O)cc2)coc2cc(O)ccc12 [DAIDZEIN] | 120 | 7.3 | Activity [4]: Active; Activity [5]: Active; Activity [6]: 392%; inhibition (INH) [7]: Active |
| C#C[C@]1(O)CC[C@H]2[C@@H]3CCc4cc(O)ccc4[C@H]3CC[C@@]21C [ETHINYL ESTRADIOL] | 44 | 21 | Activity [8]: 128%; Activity (UGT1A1): ≤ 140%; Activity [5]: Active |
| CC(C)=CCC/C(C)=C/CC/C(C)=C/CO [FARNESOL] | 40 | 47 | – |
| Cc1cc(=O)oc2cc(O)ccc12 [HYMECROMONE] | 100 | 100 | – |
| CC(=O)N1CCN(c2ccc(OCC3COC(Cn4ccnc4)(c4ccc(Cl)cc4Cl)O3)cc2)CC1 (configuration not stated) [KETOCONAZOLE] | 13 | 27 | – |
| N[C@@H](Cc1cc(I)c(Oc2cc(I)c(O)c(I)c2)c(I)c1)C(=O)O [LEVOTHYROXINE] | 5.6 | 4.9 | – |
| O=C(O)c1cccnc1Nc1cccc(C(F)(F)F)c1 [NIFLUMIC ACID] | 13 | 53 | – |
| Nc1nc2ccc(OC(F)(F)F)cc2s1 [RILUZOLE] | 160 | 180 | – |
| B1 | – | – | Km [9]: 25 µM |
